Experimental data as given in patent publication US20110071158A1, “NEW COMPOUNDS” (BOEHRINGER INGELHEIM INTERNATIONAL GMBH, priority 2009, published 2011).
pIC50: −log10 of the molar value.

Target: T1, PTK2 enzyme (Homo sapiens, UniProt Q05397)
T1 construct: purchased Invitrogen PV3832
Experiment: PTK2 enzyme test, Assay 1 (DELFIA, poly-Glu-Tyr substrate, antibody PT60)
Assay type: biochemical
Conditions: Assay 1 (values without *); 1 h pre-incubation, 2% DMSO
Description: This test uses active PTK2 enzyme (Invitrogen Code PV3832) and poly-Glu-Tyr (4:1, Sigma P-0275) as the kinase substrate. The kinase activity is detected through the phosphorylation of the substrate in a DELFIA™ assay. The phosphorylated substrate is detected with the europium-labelled phosphotyrosine antibody PT60 (Perkin Elmer, No.: AD00400).
In order to determine concentration-activity curves with PTK2-inhibitors the compounds are serially diluted in 10% DMSO/H2O and 10 μL of each dilution are placed in each well of a 96-well microtitre plate (clear plate with a U-shaped base, Greiner No. 650101) (the inhibitors are tested in duplicates) and mixed with 10 μL/well of PTK2 kinase (0.01 μg/well). PTK2 kinase has been correspondingly diluted beforehand with kinase dilution buffer (20 mM TRIS/HCl pH 7.5, 0.1 mM EDTA, 0.1 mM EGTA, 0.286 mM sodium orthovanadate, 10% glycerol with the addition of freshly prepared BSA (fraction V, 1 mg/mL) and DTT (1 mM)). The test compound and the PTK2 kinase are pre-incubated for 1 h at RT and shaken at 500 revolutions per min. The reaction is started by the addition of 10 μL/well poly (Glu,Tyr) substrate (25 μg/well poly (Glu, Tyr), 0.05 μg/well biotinylated poly (Glu,Tyr) dissolved in 250 mM TRIS/HCl pH 7.5, 9 mM DTT)—the final concentration of DMSO is 2%. Then 20 μL of ATP Mix (30 mM TRIS/HCl pH 7.5, 0.02% Brij, 0.2 mM sodium orthovanadate, 10 mM magnesium acetate, 0.1 mM EGTA, 1× phosphatase inhibitor cocktail 1 (Sigma, No.: P2850), 50 μM ATP (Sigma, No.: A3377; 15 mM stock solution)) are added. After 1 h of kinase reaction (the plates are shaken at 500 rpm), the reaction is stopped by the addition of 12 μL/well 100 mM EDTA, pH 8.0 and shaken for a further 5 min at RT (500 rpm). 55 μL of the reaction mixture are transferred into a streptavidin plate (Strepta Well High Bind (transparent, 96-well) made by Roche, No.: 11989685001) and incubated for 1 h at RT (shaking at 500 rpm). Then the microtitre plate is washed three times with 200 μL/well D-PBS (Invitrogen, No. 14190). 100 μL of a solution containing DELFIA Eu-N1 Anti-Phosphotyrosine PT60 antibody (Perkin Elmer, No.: AD0040, diluted 1:2000 in DELFIA test buffer (Perkin Elmer, No.: 1244-111)) is then added and the mixture is incubated for 1 h at RT (shaking at 500 rpm). Then the plate is washed three times with 200 μL/well DELFIA washing buffer (Perkin Elmer, No.: 1244-114), 200 μL/well strengthening solution (Perkin Elmer, No.: 1244-105) are added and the mixture is incubated for 10 min at RT (shaking at 300 rpm).
The time-delayed europium fluorescence is then measured in a microtitre plate reader (VICTOR^3, Perkin Elmer). […] Wells that contain test buffer instead of enzyme are used as a control of the background kinase activity.
The IC50 values are determined from analyses of the concentration activity by iterative calculation with the aid of a sigmoid curve analysis algorithm (FIFTY, based on Graph PAD Prism Version 3.03) with a variable Hill coefficient.

T1 sequence (Q05397 whole entry): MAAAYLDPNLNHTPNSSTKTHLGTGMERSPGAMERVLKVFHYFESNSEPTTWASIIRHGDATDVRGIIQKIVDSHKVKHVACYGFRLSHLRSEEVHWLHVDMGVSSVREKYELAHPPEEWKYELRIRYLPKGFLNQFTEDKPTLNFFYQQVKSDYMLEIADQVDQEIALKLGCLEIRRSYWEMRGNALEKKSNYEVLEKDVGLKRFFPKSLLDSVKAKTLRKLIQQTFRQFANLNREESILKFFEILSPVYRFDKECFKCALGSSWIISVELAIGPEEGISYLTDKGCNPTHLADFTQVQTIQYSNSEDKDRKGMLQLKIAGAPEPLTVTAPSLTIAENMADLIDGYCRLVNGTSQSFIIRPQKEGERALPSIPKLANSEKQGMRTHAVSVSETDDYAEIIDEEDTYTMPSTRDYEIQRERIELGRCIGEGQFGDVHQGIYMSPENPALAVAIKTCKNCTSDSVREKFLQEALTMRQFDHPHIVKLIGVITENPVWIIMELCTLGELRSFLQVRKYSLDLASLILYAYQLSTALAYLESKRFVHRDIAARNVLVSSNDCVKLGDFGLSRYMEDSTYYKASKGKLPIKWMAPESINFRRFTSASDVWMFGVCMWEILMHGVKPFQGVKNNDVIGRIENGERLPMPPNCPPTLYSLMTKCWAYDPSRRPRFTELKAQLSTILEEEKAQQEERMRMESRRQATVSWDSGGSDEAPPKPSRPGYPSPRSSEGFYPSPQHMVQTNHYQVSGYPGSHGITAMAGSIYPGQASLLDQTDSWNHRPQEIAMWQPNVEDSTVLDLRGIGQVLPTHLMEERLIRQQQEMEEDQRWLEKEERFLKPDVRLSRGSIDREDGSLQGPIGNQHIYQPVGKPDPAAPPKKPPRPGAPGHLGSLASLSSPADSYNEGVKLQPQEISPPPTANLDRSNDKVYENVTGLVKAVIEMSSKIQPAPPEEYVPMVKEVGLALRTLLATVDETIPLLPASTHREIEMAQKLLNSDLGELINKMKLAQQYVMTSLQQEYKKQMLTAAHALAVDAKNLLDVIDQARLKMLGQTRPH

pIC50 | Structure (SMILES)
8.52 | CNCc1ccc(Nc2ncc(C(F)(F)F)c(N[C@@H]3CCCC[C@H]3NC(=O)C(C)C)n2)c(OC)c1 [Example I-79]
7.49 | COc1cc(C(=O)NC2CCN(C)CC2)ccc1Nc1ncc(C(F)(F)F)c(N[C@@H]2CCCC[C@H]2NC(=O)CC(C)C)n1 [Example I-14]
8.52 | CCN(C(C)=O)[C@@H]1CCCC[C@H]1Nc1nc(Nc2ccc(C(=O)NC3CCN(C)CC3)cc2OC)ncc1C(F)(F)F [Example I-99]
8.05 | CCN([C@@H]1CCCC[C@H]1Nc1nc(Nc2ccc(NC(C)=O)c(OC)c2)ncc1C(F)(F)F)S(C)(=O)=O [Example I-189]
9.03 | COc1cc(N2CCN(C)CC2)ccc1Nc1ncc(C(F)(F)F)c(N[C@@H]2CCCC[C@H]2N(C)S(C)(=O)=O)n1 [Example I-143]
6.70 | COc1cc(C(=O)NC2CCN(C)CC2)ccc1Nc1ncc(C(F)(F)F)c(N[C@@H]2CCCC[C@H]2NC(=O)CN2CCOCC2)n1 [Example I-68]
8.70 | CCC(=O)N[C@@H]1CCCC[C@H]1Nc1nc(Nc2ccc(CNC)cc2OC)ncc1C(F)(F)F [Example I-77]
9.19 | COc1cc(C(=O)NC2CCN(C)CC2)ccc1Nc1ncc(C(C)C)c(N[C@@H]2CCCC[C@H]2N(C)S(C)(=O)=O)n1 [Example I-175]
8.70 | CNC(=O)c1ccc(Nc2ncc(Br)c(N[C@@H]3CCCC[C@H]3NC(C)=O)n2)c(OC)c1 [Example I-46]
8.70 | CCC(=O)N[C@@H]1CCCC[C@H]1Nc1nc(Nc2cc(F)c(C(=O)NC3CCN(C)CC3)cc2OC)ncc1C(F)(F)F [Example I-120]
6.70 | COc1cc(C(=O)NC2CCN(C)CC2)ccc1Nc1ncc(C(F)(F)F)c(N[C@@H]2CCCC[C@H]2NC(=O)CN2CCN(C)CC2)n1 [Example I-66]
9.00 | COc1cc(C(=O)NC2CCN(C)CC2)c(F)cc1Nc1ncc(C(F)(F)F)c(N[C@@H]2CCCC[C@H]2NC(C)=O)n1 [Example I-154]
8.70 | COCCNC(=O)c1ccc(Nc2ncc(C(F)(F)F)c(N[C@@H]3CCCC[C@H]3N(C)C(C)=O)n2)c(OC)c1 [Example I-110]
8.70 | CNC(=O)c1cc(OC)c(Nc2ncc(C(F)(F)F)c(N[C@@H]3CCCC[C@H]3NC(C)=O)n2)cc1F [Example I-85]
8.30 | CON[C@H]1CCCC[C@H]1Nc1nc(Nc2ccc(C(=O)NC3CCN(C)CC3)cc2OC)ncc1C(F)(F)F [Example I-113]
9.00 | COc1cc(C(=O)NCCCN(C)C)ccc1Nc1ncc(C(F)(F)F)c(N[C@@H]2CCCC[C@H]2N(C)C(C)=O)n1 [Example I-112]
9.02 | COc1cc(C(=O)NCCN(C)C)ccc1Nc1ncc(C(F)(F)F)c(N[C@@H]2CCCC[C@H]2N(C)C(C)=O)n1 [Example I-73]
7.42 | COc1cc(C(=O)NC2CCN(C)CC2)ccc1Nc1ncc(C(F)(F)F)c(N[C@@H]2CCC[C@@H]2NC(C)=O)n1 [Example I-105]
9.00 | COc1cc(CN2CCN(C)CC2)ccc1Nc1ncc(C(F)(F)F)c(N[C@@H]2CCCC[C@H]2NC(C)=O)n1 [Example I-116]
8.40 | CCCC(=O)N[C@@H]1CCCC[C@H]1Nc1nc(Nc2ccc(C(=O)NC3CCN(C)CC3)cc2OC)ncc1C(F)(F)F [Example I-19]
8.70 | COc1cc(N2CCN(C)CC2)ccc1Nc1ncc(C(F)(F)F)c(N[C@@H]2CCCC[C@H]2N(C)C(C)=O)n1 [Example I-101]
8.00 | COc1cc(C(=O)N(C)C)ccc1Nc1ncc(Br)c(N[C@@H]2CCCC[C@H]2NC(C)=O)n1 [Example I-49]
9.00 | CCC(=O)N[C@@H]1CCCC[C@H]1Nc1nc(Nc2ccc(C(=O)NC3CCN(C)CC3)cc2OC)ncc1C(F)(F)F [Example I-1, 3-methoxy-N-(1-methyl-piperidin-4-yl)-4-[4-((1R,2R)-2-propionylamino-cyclohexylamino)-5-trifluoromethyl-pyrimidin-2-ylamino]-benzamide]
8.22 | CC(=O)Nc1ccc(Nc2ncc(C(F)(F)F)c(N[C@@H]3CCCC[C@H]3N(C)S(C)(=O)=O)n2)cc1Cl [Example I-187]
8.40 | CC(=O)Nc1ccc(Nc2ncc(C(F)(F)F)c(N[C@@H]3CCCC[C@H]3N(C)S(C)(=O)=O)n2)cc1C [Example I-186]

pIC50 | Structure (SMILES)
7.74 | COc1cc(C(=O)N(C)C)ccc1Nc1ncc(C(F)(F)F)c(N[C@@H]2CCCC[C@H]2NC(C)=O)n1 [Example I-13]
9.00 | COc1cc(C(=O)NC2CCCN(C)C2)ccc1Nc1ncc(C(F)(F)F)c(N[C@@H]2CCCC[C@H]2N(C)C(C)=O)n1 (stereo partly shown) [Example I-74]
7.68 | COc1cc(N2CCN(C)CC2)ccc1Nc1ncc(C(F)(F)F)c(N[C@@H]2CCCC[C@H]2NC(=O)CN(C)C)n1 [Example I-32]
9.14 | CCN1CCC(NC(=O)c2ccc(Nc3ncc(C(F)(F)F)c(N[C@@H]4CCC[C@H]4N(C)S(C)(=O)=O)n3)c(OC)c2)CC1 [Example I-129]
8.40 | CNCc1ccc(Nc2ncc(C(F)(F)F)c(N[C@@H]3CCCC[C@H]3NC(=O)COC)n2)c(OC)c1 [Example I-78]
9.00 | COc1cc(C(=O)NC2CCN(C)CC2)ccc1Nc1ncc(C(F)(F)F)c(N[C@@H]2CCCC[C@@H]2N(OC)C(C)=O)n1 [Example I-114]
7.89 | COc1cc(Nc2ncc(Cl)c(N[C@@H]3CCCC[C@H]3NC(C)=O)n2)cc(OC)c1OC [Example I-190]
7.15 | COc1cc(C(=O)NC2CCN(C)CC2)ccc1Nc1ncc(C(F)(F)F)c(N[C@@H]2CCCC[C@H]2N(C)C)n1 [Example I-34]
8.40 | COc1ccc(Nc2ncc(Br)c(N[C@@H]3CCCC[C@H]3NC(C)=O)n2)c(OC)c1 [Example I-54]
8.00 | CCN1CCC(NC(=O)c2ccc(Nc3ncc(C(F)(F)F)c(N[C@@H]4CCCC[C@H]4N(C)C(C)=O)n3)c(OC)c2)CC1 [Example I-71]
9.00 | CNCc1ccc(Nc2ncc(C(F)(F)F)c(N[C@@H]3CCCC[C@H]3NC(C)=O)n2)c(OC)c1 [Example I-76]
9.00 | COc1cc(C(=O)NC2CCN(C(C)C)CC2)ccc1Nc1ncc(C(F)(F)F)c(N[C@@H]2CCCC[C@H]2N(C)C(C)=O)n1 [Example I-109]
8.15 | COC(=O)N(C)[C@@H]1CCCC[C@H]1Nc1nc(Nc2ccc(C(=O)NC3CCN(C)CC3)cc2OC)ncc1C(F)(F)F [Example I-95]
7.51 | COc1cc(C(=O)N(C)C)ccc1Nc1ncc(C(F)(F)F)c(N[C@@H]2CCCC[C@H]2N(C)C(C)=O)n1 [Example I-72]
8.05 | COc1cc(C(=O)NC2CCN(C)CC2)ccc1Nc1ncc(C(F)(F)F)c(N[C@@H]2CCCC[C@H]2N(C)C(=O)C(C)C)n1 [Example I-80]
8.52 | CCNC(=O)N[C@@H]1CCCC[C@H]1Nc1nc(Nc2ccc(C(=O)NC3CCN(C)CC3)cc2OC)ncc1C(F)(F)F [Example I-15]
8.00 | COc1ccc(Nc2ncc(Cl)c(N[C@@H]3CCCC[C@H]3NC(C)=O)n2)c(OC)c1 [Example I-67]
9.00 | COc1cc(C(=O)NC2CCN(C)CC2)ccc1Nc1ncc(Cl)c(N[C@@H]2CCCC[C@H]2N(C)S(C)(=O)=O)n1 [Example I-162]
8.10 | COc1ccccc1Nc1ncc(Br)c(N[C@@H]2CCCC[C@H]2NC(C)=O)n1 [Example I-53]
8.70 | CCN1CCC(NC(=O)c2ccc(Nc3ncc(C(F)(F)F)c(N[C@@H]4CCCC[C@H]4NC(C)=O)n3)c(OC)c2)CC1 [Example I-8]
8.52 | CNC(=O)c1ccc(Nc2ncc(Cl)c(N[C@@H]3CCCC[C@H]3NC(C)=O)n2)c(OC)c1 [Example I-56]
9.00 | COc1cc(C(=O)N[C@H]2CCCN(C)C2)ccc1Nc1ncc(C(F)(F)F)c(N[C@@H]2CCCC[C@H]2N(C)C(C)=O)n1 [Example I-107]
9.02 | COc1cc(C(=O)NCCN(C)C)ccc1Nc1ncc(Br)c(N[C@@H]2CCCC[C@H]2NC(C)=O)n1 [Example I-47]
7.43 | COc1cc(C(=O)NC2CCN(C)CC2)ccc1Nc1ncc(C(F)(F)F)c(N[C@@H]2CCCC[C@H]2N(C)C(=O)C2CCC2)n1 [Example I-84]
